Results from publication PMC10879502, “Linking ATP and allosteric sites to achieve superadditive binding with bivalent EGFR kinase inhibitors” (Communications Chemistry, 2024).
Several values for one entry are separate records, joined by “and”; a condition that tells them apart may be missing. Equal entries are not always repeated. Where two headings read alike, the source gives them in different places.

Key:
[1] = molecular target: T1, EGFR L858R/T790M (LRTM) kinase domain (Homo sapiens, UniProt P00533, L858R/T790M); experiment: HTRF KinEASE-TK kinase activity assay; format: biochemical; settings: for Linking coefficient E: LRTM IC50, upper limit; for activity: LRTM, read-out: percent inhibition
T1 construct: The EGFR kinase domain (residues 696–1022) was cloned into pTriEx; 6xHis (N, cleaved yes); GST (N, cleaved yes); made in house; host or cells: SF9 insect cells, baculovirus

[2] = molecular target: ALK (Homo sapiens, UniProt Q9UM73); experiment: KINOMEscan; format: binding; settings: 1 μM
[3] = molecular target: T2, HIPK3 (Homo sapiens, UniProt Q9H422); experiment: KINOMEscan; format: binding; settings: 1 μM
T2 construct: purchased Eurofins DiscoverX Corporation

[4] = molecular target: T3, CAMK1 (Homo sapiens, UniProt Q14012); experiment: KINOMEscan; format: binding; settings: 1 μM
T3 construct: purchased Eurofins DiscoverX Corporation (KINOMEscan)

[5] = molecular target: ASK1 (Homo sapiens, UniProt Q99683); experiment: KINOMEscan; format: binding; settings: 1 μM
[6] = molecular target: PIM3 (Homo sapiens, UniProt Q86V86); experiment: KINOMEscan; format: binding; settings: 1 μM
[7] = molecular target: PIP5K1A (Homo sapiens, UniProt Q99755); experiment: KINOMEscan; format: binding; settings: 1 μM
[8] = molecular target: T4, CSNK1G1 (Homo sapiens, UniProt Q9HCP0); experiment: KINOMEscan; format: binding; settings: 1 μM
T4 construct: purchased Eurofins DiscoverX Corporation

[9] = molecular target: T5, DYRK1A (Homo sapiens, UniProt Q13627); experiment: KINOMEscan; format: binding; settings: 1 μM
T5 construct: purchased Eurofins DiscoverX Corporation

[10] = molecular target: RSK4(Kin.Dom.1-N-terminal) (Homo sapiens, UniProt Q9UK32); experiment: KINOMEscan; format: binding; settings: 1 μM
RSK4(Kin.Dom.1-N-terminal), sequence (Q9UK32 73-330 limits assumed): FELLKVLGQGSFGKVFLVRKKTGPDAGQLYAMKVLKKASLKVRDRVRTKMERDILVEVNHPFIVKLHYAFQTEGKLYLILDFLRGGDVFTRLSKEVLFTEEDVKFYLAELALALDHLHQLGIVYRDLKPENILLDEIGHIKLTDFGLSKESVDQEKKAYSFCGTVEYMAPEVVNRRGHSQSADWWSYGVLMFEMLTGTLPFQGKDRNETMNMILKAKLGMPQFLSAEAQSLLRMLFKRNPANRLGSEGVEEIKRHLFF

[11] = molecular target: T6, BRAF(V600E) (Homo sapiens, UniProt P15056, V600E); experiment: KINOMEscan; format: binding; settings: 1 μM
T6 construct: purchased Eurofins DiscoverX Corporation (KINOMEscan)
T6 sequence (P15056 whole entry V600E): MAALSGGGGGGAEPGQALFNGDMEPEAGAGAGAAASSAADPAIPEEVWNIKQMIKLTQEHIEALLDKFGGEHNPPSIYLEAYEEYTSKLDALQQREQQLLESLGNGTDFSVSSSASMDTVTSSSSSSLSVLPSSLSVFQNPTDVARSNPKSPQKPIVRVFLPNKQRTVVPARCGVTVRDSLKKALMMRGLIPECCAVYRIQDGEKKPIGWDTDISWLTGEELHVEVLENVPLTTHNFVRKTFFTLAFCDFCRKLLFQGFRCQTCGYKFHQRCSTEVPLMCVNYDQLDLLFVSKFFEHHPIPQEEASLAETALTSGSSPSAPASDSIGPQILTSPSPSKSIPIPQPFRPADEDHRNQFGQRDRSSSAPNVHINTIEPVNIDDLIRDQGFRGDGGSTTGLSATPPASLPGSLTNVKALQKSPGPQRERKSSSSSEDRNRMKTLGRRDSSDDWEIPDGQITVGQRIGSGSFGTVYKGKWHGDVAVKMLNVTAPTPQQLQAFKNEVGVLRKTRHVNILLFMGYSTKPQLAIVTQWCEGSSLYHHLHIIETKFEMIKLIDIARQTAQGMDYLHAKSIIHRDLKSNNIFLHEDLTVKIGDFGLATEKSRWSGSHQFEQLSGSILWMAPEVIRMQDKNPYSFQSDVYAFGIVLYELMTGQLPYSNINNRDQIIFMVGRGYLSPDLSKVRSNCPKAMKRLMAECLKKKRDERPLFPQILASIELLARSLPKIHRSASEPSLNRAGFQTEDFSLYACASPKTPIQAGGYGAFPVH

[12] = molecular target: CDKL5 (Homo sapiens, UniProt O76039); experiment: KINOMEscan; format: binding; settings: 1 μM
[13] = molecular target: T7, MEK1 (Homo sapiens, UniProt Q02750); experiment: KINOMEscan; format: binding; settings: 1 μM
T7 construct: purchased Eurofins DiscoverX Corporation
T7 sequence (Q02750 whole entry): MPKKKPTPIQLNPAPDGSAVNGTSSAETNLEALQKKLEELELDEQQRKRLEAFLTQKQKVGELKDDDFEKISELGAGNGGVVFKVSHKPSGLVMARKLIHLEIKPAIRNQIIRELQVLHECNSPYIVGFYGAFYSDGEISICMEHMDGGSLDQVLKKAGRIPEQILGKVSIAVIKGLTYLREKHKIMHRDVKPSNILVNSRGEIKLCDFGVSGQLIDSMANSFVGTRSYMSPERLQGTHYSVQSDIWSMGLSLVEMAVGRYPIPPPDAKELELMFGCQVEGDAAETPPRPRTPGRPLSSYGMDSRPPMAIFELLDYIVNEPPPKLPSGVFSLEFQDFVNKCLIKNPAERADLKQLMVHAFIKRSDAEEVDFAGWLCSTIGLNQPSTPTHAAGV

[14] = molecular target: T8, MARK4 (Homo sapiens, UniProt Q96L34); experiment: KINOMEscan; format: binding; settings: 1 μM
T8 construct: purchased Eurofins DiscoverX Corporation

[15] = molecular target: RIPK4 (Homo sapiens, UniProt P57078); experiment: KINOMEscan; format: binding; settings: 1 μM
[16] = molecular target: CSF1R-autoinhibited (Homo sapiens, UniProt P07333); experiment: KINOMEscan; format: binding; settings: 1 μM
CSF1R-autoinhibited, sequence (P07333 539-972 limits assumed): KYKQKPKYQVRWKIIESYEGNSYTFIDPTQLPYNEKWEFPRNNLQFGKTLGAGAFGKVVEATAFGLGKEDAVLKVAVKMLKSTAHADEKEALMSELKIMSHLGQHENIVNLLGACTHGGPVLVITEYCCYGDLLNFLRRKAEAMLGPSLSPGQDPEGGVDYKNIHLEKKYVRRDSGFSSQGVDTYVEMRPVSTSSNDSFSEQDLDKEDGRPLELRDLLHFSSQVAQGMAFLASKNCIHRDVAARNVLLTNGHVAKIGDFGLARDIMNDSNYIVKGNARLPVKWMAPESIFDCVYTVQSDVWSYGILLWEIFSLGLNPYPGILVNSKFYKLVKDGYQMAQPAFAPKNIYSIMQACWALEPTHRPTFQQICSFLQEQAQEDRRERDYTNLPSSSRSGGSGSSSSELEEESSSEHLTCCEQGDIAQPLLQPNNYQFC

[17] = molecular target: PIK3CA(H1047L) (Homo sapiens, UniProt P42336, H1047L); experiment: KINOMEscan; format: binding; settings: 1 μM
[18] = molecular target: T9, DRAK2 (Homo sapiens, UniProt O94768); experiment: KINOMEscan; format: binding; settings: 1 μM
T9 construct: purchased Eurofins DiscoverX Corporation
T9 sequence (O94768 whole entry): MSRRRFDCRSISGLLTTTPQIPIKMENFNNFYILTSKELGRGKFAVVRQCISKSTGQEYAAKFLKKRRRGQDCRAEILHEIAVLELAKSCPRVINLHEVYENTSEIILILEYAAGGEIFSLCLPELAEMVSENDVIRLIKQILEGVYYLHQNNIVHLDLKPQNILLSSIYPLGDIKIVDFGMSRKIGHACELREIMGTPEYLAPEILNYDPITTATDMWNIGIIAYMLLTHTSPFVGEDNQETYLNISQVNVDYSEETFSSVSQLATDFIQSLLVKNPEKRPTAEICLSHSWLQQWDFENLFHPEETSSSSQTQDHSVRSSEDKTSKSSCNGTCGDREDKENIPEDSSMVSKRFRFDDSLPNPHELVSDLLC

[19] = molecular target: T10, INSR (Homo sapiens, UniProt P06213); experiment: KINOMEscan; format: binding; settings: 1 μM
T10 construct: purchased Eurofins DiscoverX (KINOMEscan)

[20] = molecular target: T11, TGFBR1 (Homo sapiens, UniProt P36897); experiment: KINOMEscan; format: binding; settings: 1 μM
T11 construct: purchased Eurofins DiscoverX Corporation

[21] = molecular target: EGFR(G719C) (Homo sapiens, UniProt P00533, G719C); experiment: KINOMEscan; format: binding; settings: 1 μM
[22] = molecular target: T12, MST2 (Homo sapiens, UniProt Q13188); experiment: KINOMEscan; format: binding; settings: 1 μM
T12 construct: purchased Eurofins DiscoverX Corporation

[23] = molecular target: TXK (Homo sapiens, UniProt P42681); experiment: KINOMEscan; format: binding; settings: 1 μM
[24] = molecular target: T13, CSNK1A1L (Homo sapiens, UniProt Q8N752); experiment: KINOMEscan; format: binding; settings: 1 μM
T13 construct: purchased Eurofins DiscoverX Corporation
T13 sequence (Q8N752 whole entry): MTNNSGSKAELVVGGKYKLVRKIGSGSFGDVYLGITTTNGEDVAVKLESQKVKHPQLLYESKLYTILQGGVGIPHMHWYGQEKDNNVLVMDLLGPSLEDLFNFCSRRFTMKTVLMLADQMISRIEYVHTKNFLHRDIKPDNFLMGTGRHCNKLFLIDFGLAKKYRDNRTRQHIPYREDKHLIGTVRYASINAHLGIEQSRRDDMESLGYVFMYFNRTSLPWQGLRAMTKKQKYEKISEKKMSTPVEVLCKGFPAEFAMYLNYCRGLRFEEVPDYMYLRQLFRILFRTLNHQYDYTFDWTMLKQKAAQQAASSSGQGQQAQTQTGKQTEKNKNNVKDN

[25] = molecular target: T14, CAMK2A (Homo sapiens, UniProt Q9UQM7); experiment: KINOMEscan; format: binding; settings: 1 μM
T14 construct: purchased Eurofins DiscoverX Corporation (KINOMEscan)
T14 sequence (Q9UQM7 whole entry): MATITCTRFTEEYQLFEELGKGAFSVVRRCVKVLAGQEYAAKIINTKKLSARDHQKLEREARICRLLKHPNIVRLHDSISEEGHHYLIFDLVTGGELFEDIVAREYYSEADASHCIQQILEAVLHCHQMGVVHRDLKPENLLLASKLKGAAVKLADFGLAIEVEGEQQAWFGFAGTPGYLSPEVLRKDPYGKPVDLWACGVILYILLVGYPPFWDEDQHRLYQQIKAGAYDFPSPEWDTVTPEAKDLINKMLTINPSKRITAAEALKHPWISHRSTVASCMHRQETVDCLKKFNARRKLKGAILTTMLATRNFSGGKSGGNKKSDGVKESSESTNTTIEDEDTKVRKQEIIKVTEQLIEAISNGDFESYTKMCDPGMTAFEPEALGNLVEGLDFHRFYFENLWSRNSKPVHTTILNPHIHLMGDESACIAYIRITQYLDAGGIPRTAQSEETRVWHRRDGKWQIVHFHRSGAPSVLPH

[26] = molecular target: T15, MAP3K3 (Homo sapiens, UniProt Q99759); experiment: KINOMEscan; format: binding; settings: 1 μM
T15 construct: purchased Eurofins DiscoverX Corporation

[27] = molecular target: PYK2 (Homo sapiens, UniProt Q14289); experiment: KINOMEscan; format: binding; settings: 1 μM
[28] = molecular target: T16, MARK1 (Homo sapiens, UniProt Q9P0L2); experiment: KINOMEscan; format: binding; settings: 1 μM
T16 construct: purchased Eurofins DiscoverX Corporation

[29] = molecular target: AKT2 (Homo sapiens, UniProt P31751); experiment: KINOMEscan; format: binding; settings: 1 μM
AKT2, sequence (P31751 whole entry): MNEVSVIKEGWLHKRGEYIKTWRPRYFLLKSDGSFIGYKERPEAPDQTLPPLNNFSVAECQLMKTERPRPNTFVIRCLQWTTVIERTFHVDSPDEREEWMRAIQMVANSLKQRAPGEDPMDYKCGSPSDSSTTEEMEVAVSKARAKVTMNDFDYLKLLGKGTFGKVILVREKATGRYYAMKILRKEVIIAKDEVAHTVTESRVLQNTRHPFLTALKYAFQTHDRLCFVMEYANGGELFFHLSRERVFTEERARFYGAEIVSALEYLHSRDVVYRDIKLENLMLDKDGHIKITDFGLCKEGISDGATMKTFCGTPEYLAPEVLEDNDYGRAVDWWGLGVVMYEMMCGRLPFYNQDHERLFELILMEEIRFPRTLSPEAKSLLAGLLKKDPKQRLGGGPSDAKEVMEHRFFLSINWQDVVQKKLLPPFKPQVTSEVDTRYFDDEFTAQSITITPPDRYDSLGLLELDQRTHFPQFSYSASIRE

[30] = molecular target: ACVR2A (Homo sapiens, UniProt P27037); experiment: KINOMEscan; format: binding; settings: 1 μM
[31] = molecular target: T17, NEK10 (Homo sapiens, UniProt Q6ZWH5); experiment: KINOMEscan; format: binding; settings: 1 μM
T17 construct: purchased Eurofins DiscoverX Corporation

[32] = molecular target: PIK3CA(E545A) (Homo sapiens, UniProt P42336, E545A); experiment: KINOMEscan; format: binding; settings: 1 μM
[33] = molecular target: PDGFRB (Homo sapiens, UniProt P09619); experiment: KINOMEscan; format: binding; settings: 1 μM
[34] = molecular target: PRKCD (Homo sapiens, UniProt Q05655); experiment: KINOMEscan; format: binding; settings: 1 μM
[35] = molecular target: T18, MKNK1 (Homo sapiens, UniProt Q9BUB5); experiment: KINOMEscan; format: binding; settings: 1 μM
T18 construct: purchased Eurofins DiscoverX Corporation

[36] = molecular target: T19, ABL1(F317I)-nonphosphorylated (Homo sapiens, UniProt P00519, F317I); experiment: KINOMEscan; format: binding; settings: 1 μM
T19 construct: purchased Eurofins DiscoverX Corporation
T19 sequence (P00519 whole entry F317I): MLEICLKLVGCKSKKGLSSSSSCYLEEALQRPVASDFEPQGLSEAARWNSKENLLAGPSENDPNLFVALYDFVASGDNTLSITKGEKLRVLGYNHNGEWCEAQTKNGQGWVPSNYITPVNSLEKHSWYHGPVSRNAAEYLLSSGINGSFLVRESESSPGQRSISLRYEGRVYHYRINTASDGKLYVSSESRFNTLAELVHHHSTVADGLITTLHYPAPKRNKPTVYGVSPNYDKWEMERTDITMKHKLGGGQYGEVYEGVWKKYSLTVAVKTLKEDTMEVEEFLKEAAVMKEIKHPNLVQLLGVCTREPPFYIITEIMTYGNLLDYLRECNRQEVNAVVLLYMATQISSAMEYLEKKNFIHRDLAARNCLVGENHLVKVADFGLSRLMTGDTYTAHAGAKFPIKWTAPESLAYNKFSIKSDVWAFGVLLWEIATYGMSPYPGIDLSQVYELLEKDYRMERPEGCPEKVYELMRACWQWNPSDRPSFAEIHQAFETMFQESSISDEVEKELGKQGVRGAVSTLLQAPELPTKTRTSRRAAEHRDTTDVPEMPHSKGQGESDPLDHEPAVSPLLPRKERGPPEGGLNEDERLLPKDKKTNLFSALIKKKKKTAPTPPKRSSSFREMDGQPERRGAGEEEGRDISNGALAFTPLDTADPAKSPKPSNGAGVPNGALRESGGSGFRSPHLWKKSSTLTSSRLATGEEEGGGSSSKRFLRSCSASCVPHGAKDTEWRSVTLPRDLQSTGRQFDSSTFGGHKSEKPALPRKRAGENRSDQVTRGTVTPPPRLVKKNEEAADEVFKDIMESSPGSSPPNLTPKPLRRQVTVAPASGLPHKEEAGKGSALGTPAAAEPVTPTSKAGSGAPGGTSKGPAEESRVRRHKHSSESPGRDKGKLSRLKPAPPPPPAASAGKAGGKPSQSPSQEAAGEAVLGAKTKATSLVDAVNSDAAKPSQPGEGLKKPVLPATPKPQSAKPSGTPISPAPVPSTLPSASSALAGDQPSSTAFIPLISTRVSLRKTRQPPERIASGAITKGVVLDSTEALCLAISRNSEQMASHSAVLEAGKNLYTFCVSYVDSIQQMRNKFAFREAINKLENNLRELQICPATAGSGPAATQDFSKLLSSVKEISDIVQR

[37] = molecular target: T20, FLT3(R834Q) (Homo sapiens, UniProt P36888, R834Q); experiment: KINOMEscan; format: binding; settings: 1 μM
T20 construct: purchased Eurofins DiscoverX Corporation

CSc1nc(-c2cccc(NC(=O)c3cccc4c3NC(=O)c3ccccc3N4)c2)c(-c2ccnc(NC(C)=O)c2)[nH]1 [Compound 2]
Linking coefficient E ([1]; ATP fragment 5, allosteric fragment 10): < 1.0 M⁻¹
Linking coefficient E ([1]; ATP fragment 6, allosteric fragment 10): < 0. 59 M-1
activity ([1]; [Inhibitor] 1.3e-5 nM): 83.4% and 90.2% and 86.8%
activity ([1]; [Inhibitor] 3.18e-5 nM): 73.8% and 73.1% and 84.5%
activity ([1]; [Inhibitor] 7.78e-5 nM): 40.1% and 41.4% and 42.9%
activity ([1]; [Inhibitor] 0.000190441 nM, 190.4 fM): 19.1% and 19.2%
activity ([1]; [Inhibitor] 0.000465979 nM, 466 fM): 8.04% and 10%
activity ([1]; [Inhibitor] 0.00114018 nM, 1.14 pM): 5.9% and 5.75%
activity ([1]; [Inhibitor] 0.00278983 nM, 2.79 pM): 3.92% and 5.27%
activity ([1]; [Inhibitor] 0.00682626 nM, 6.826 pM): 3.83% and 4.05%
activity ([1]; [Inhibitor] 0.0167028 nM, 16.7 pM): 2.18% and 2.36%
IC50 ([1]; Table S1, read-out: IC50, LRTM): 0.051 to 0.064 nM and 0.051 to 0.059 nM
IC50 ([1]; enzyme 0.02 nM, ATP 100 µM, read-out: Biochemical EGFR IC50, LRTM): 0.059 ± 0.005 nM
linking coefficients ([1]; limits estimated from LRTM IC50 values): 0.5 to 1.0 M⁻¹

C=CC(=O)Nc1ccc(OC)c(Nc2cc(-c3[nH]c(CC)nc3-c3cccc(NC(=O)c4cccc5c4NC(=O)c4ccccc4N5)c3)ccn2)c1 [Compound 4]
POC [2]: 100% of control
POC [3]: 100% of control
POC [4]: 81% of control
POC [5]: 100% of control
POC [6]: 100% of control
POC [7]: 75% of control
POC [8]: 93% of control
POC [9]: 100% of control
POC [10]: 100% of control
POC [11]: 100% of control
POC [12]: 98% of control
POC [13]: 100% of control
POC [14]: 92% of control
POC [15]: 100% of control
POC [16]: 69% of control
POC [17]: 100% of control
POC [18]: 94% of control
POC [19]: 97% of control
POC [20]: 75% of control
POC [21]: 6.5% of control
POC [22]: 14% of control
POC [23]: 42% of control
POC [24]: 91% of control
POC [25]: 65% of control
POC [26]: 51% of control
POC [27]: 100% of control
POC [28]: 92% of control
POC [29]: 91% of control
POC [30]: 77% of control
POC [31]: 86% of control
POC [32]: 100% of control
POC [33]: 100% of control
POC [34]: 55% of control
POC [35]: 100% of control
POC [36]: 40% of control
POC [37]: 100% of control
